Entries after “also recorded” stand apart in the source; their conditions may differ.
Legend:
[1] = Blind monkey trial of three peptides: biochemistry, clinical chemistry screening and histopathology; format: in vivo, cynomolgus monkeys; conditions: 100 μg/animal/day sc, two weeks
Procedure: For the verification of the selected human proteins or peptides in cynomolgus monkeys, one control and four treated groups (i.e., each of three peptides and placebo) of two males and two females are treated for two weeks by daily administration of the proteins dissolved in autologous serum (e.g., in each animal's own serum) through the subcutaneous route. The administration of the peptides was blinded. The amount of peptide administered was 100 μg/animal/day (5-6 mg of peptide total).
Drug profiling in these non-human primates was analyzed using gene expression profiling of more than 100 organs on Affymetrix U95 chips (each containing ⅓ of the human genome). In addition, extensive biochemistry and clinical chemistry screening (>60 parameters) and histopathology (ca. 60 organs) were performed.

[2] = test system: gene expression in organs; test: Blind monkey trial of three peptides: gene expression profiling of organs on Affymetrix U95 chips; format: in vivo, cynomolgus monkeys; conditions: 100 μg/animal/day sc, two weeks

Substance: Peptide 2: gonadotrophin releasing hormone (QHWSYGLRPG; Gonadoliberin-1; UniProt P01148 24-33, looked up)
- Findings by the Data Mining Team: Biochemistry/Histopathology/Haematology (parameter with direction) [1]: Slight increase in aldosterone
- Conclusions of the in vivo Profiling by the Data Mining Team: Function/Pathway [2]: Ovarian and testicular
- Findings by the Data Mining Team: Adrenals (gene with direction) [2]: Follistatin+; also recorded: IGF2+; also recorded: catecholamines synthesis+; also recorded: activin A−/inhibin+
- Findings by the Data Mining Team: Bone marrow (gene with direction) [2]: Macrophages+; also recorded: eosinophils+; also recorded: activin A−; also recorded: inhibin betaB+
- Findings by the Data Mining Team: Hypothalamus (gene with direction) [2]: Transthyretin+; also recorded: oxytocin
- Findings by the Data Mining Team: Kidney (gene with direction) [2]: Thiol protease inhibitor (aldosterone + in biochemistry), and +GAPDH and +STAT and +JAK and +TEGT
- Findings by the Data Mining Team: Liver (gene with direction) [2]: Activin A−; also recorded: inhibin betaB+; also recorded: lipid metabolism+; also recorded: glycolysis+; also recorded: follistatin+; also recorded: IDO1+; also recorded: VEGF−
- Findings by the Data Mining Team: Mammary gland [2]: Inconclusive; Sampling heterogenous
- Findings by the Data Mining Team: Ovary (gene with direction) [2]: Nuclear receptors−; also recorded: aromatase and estrogen synthase+; also recorded: activinA−; also recorded: inhibin beta B+
- Findings by the Data Mining Team: Testis (gene with direction) [2]: CREM+
- Findings by the Data Mining Team: Thymus (gene with direction) [2]: Integrin alpha6+; also recorded: VAP1+; also recorded: lipid metabolism; also recorded: binding protein+,
- Findings by the Data Mining Team: Thyroid (gene with direction) [2]: Ocludin+; also recorded: thyroid hormone binding protein+; also recorded: THR alpha−

Source: patent US20130040882A1, “USE OF FIBROBLAST GROWTH FACTOR FRAGMENTS” (NOVARTIS AG, priority 2003, published 2013)
